Reference: publication PMC6049614 (Chemical Communications (Cambridge, England), 2018)
Where a SMILES comes first, the peptide text is derived from it. Bridges are numbered along the chain shown (N, C = ends). [ ]: non-standard residue; d: D form. The star is where a group is joined. X1 = O=C(O)CN1CCN(CC(=O)O)CCN(Cc2ccc(CC(=O)*)cc2)CC1; Mpa = O=C(O)CCS

Key:
human OTR = target: T1, human OTR (Homo sapiens, UniProt P30559); experiment: Scintillation proximity assay, displacement of [3H]OT from human OTR; format: binding
T1 construct: expressed in transfected cells
T1 sequence (P30559 1-389): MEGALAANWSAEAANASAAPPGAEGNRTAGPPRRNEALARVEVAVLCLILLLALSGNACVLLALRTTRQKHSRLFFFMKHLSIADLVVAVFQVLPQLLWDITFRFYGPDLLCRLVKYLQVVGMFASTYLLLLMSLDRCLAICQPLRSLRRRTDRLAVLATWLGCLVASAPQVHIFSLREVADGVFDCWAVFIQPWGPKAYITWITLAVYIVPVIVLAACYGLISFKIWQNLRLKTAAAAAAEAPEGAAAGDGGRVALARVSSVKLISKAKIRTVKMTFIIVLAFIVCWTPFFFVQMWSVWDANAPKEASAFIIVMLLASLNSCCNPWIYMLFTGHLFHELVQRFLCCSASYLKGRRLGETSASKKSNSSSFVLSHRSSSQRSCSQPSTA
Text: (§1) OT analogues were screened in scintillation proximity assays that displace [^3H]OT or [^3H]AVP from the corresponding receptors. […]
(§2) All RCYs reported are decay corrected to the time of 18F delivery. The protocols for performing
(§3) receptor radioligand binding and potency studies on transfected cells to determine affinity

human V1a receptors = target: T2, human V1a receptors (Homo sapiens, UniProt P37288); experiment: Scintillation proximity assay, displacement of [3H]AVP from human V1a receptor; format: binding
T2 construct: expressed in transfected cells
Text: as §1, §2, §3

[1] = target: T3, human vasopressin receptor V1b (Homo sapiens, UniProt P47901); experiment: Scintillation proximity assay, displacement of [3H]AVP from human V1b receptor; format: binding
T3 construct: expressed in transfected cells
T3 sequence (P47901 1-424): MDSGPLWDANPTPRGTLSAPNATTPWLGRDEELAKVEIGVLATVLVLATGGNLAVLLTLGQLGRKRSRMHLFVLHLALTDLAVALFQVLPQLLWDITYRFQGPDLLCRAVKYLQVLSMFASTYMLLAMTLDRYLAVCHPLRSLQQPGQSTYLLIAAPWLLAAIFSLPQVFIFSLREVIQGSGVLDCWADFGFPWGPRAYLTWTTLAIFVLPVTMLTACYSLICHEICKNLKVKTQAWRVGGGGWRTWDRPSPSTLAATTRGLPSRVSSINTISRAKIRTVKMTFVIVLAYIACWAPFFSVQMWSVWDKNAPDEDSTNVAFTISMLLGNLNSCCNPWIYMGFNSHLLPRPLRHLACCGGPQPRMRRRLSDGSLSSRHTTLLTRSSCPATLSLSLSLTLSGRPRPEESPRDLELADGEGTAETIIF
Text: OT analogues were screened in scintillation proximity assays that displace [^3H]OT or [^3H]AVP from the corresponding receptors. All peptides screened, including in a reduced state, preferentially bound human OTR with nanomolar affinity (Table 1). In line with previous studies, conjugation of a large group to position 8 afforded analogues with increased selectivity and improved affinity towards OTR[15] (approximately 60-fold for AlF-NODA-dLVT, and 7-fold for dLVT; Table 1 and ESI, ^† Fig. S1). […]. […]
tracer, a probe for nose-to-brain oxytocin uptake in vivo
Rhiannon Beard1; Nisha Singh2,3; Christophe Grundschober4; Antony D. Gee2 and Edward W. […]
a.1Department of Chemistry, Imperial College London, Exhibition Road, London, SW7 2AZ, UK; 2Division of Imaging Sciences, King’s College London, 4th Floor, Lambeth Wing, St Thomas’ Hospital, SE1, 7EH, London, UK; 3Centre for Neuroimaging Sciences, IoPPN, KCL, De Crespigny Park, London, SE5 8AF, UK; and 4 Roche Pharma Research and Early Development, Discovery Neuroscience, Roche Innovation Center Basel, F. Hoffmann-La Roche Ltd, Grenzacherstrasse 124, 4070 Basel, Switzerland […]
All RCYs reported are decay corrected to the time of 18F delivery. The protocols for performing receptor radioligand binding and potency studies on transfected cells to determine affinity constants have been reported elsewhere. 1 […]

[2] = target: T4, human vasopressin receptor V2 (Homo sapiens, UniProt P30518); experiment: Scintillation proximity assay, displacement of [3H]AVP from human V2 receptor; format: binding
T4 construct: expressed in transfected cells
Text: as §1, §2, §3

in vivo = settings: rat
Description: To investigate the plausibility of i.n. administration for OT-like therapies, given the similar structure and hydrophilic profile between AlF-NODA-dLVT and OT, in vivo tissue distribution of [^18F]AlF-NODA-dLVT was determined following i.n. or i.v. administration. […]. Here, it is anticipated that both routes show independent kinetic and metabolic profiles and the extended apparent availability of OT following i.n. administration supports a longer timeframe for this study.[27],[28] Distribution was determined through gamma counting of radioactivity in isolated tissue. A large portion underwent excretion via kidneys (i.v. 4.6 ± 0.4%ID per g; i.n. 1.31 ± 0.7%ID per g) and urine (i.v. 2.5 ± 1.2%ID per g; i.n. 7.7 ± 2.2%ID per g), as expected from the hydrophilic character of the tracer, similar to previous results found with radiolabelled OT given i.v. (Fig. 4A).[29]
Supplementary Figure 5: Pharmacokinetic data acquired from three individual rats showing plasma clearance of AlF-NODA-dLVT over time. Rats received a dose of AlF-NODA-dLVT by tail vein injection (0.08 mg/kg), and blood plasma samples were taken at the specified time point for quantitative analysis by mass spectrometry. […]
Supplementary Figure 6: Transaxial nanoPET scan showing distribution over time of [18F]AlF-NODA-dLVT. Tracer was administered either by i.v. bolus (top) or intranasally (bottom) in rat. […]

T4 sequence (P30518 whole entry): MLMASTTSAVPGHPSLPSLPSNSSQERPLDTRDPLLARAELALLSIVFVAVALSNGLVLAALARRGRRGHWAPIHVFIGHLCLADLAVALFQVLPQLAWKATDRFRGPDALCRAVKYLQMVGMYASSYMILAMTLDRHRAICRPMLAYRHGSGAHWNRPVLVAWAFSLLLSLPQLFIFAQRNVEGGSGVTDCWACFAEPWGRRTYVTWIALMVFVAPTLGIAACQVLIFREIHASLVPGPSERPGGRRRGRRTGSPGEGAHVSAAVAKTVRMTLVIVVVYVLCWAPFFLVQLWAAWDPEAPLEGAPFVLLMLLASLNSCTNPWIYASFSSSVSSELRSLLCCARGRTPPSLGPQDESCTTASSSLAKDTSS
T2 sequence (P37288 whole entry): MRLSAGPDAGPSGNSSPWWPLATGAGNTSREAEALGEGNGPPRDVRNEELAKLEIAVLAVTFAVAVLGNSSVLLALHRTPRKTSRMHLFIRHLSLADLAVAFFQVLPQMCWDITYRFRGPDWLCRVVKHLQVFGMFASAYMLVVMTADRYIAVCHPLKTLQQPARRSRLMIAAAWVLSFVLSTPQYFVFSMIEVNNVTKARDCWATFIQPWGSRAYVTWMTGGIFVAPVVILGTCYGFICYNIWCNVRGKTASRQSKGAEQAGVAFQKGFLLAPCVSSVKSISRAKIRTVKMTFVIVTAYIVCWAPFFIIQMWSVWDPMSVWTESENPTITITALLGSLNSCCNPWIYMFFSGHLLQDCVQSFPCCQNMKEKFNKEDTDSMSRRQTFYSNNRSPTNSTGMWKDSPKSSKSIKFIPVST

Structure (SMILES): CC[C@H](C)[C@@H]1NC(=O)[C@H](Cc2ccc(O)cc2)NC(=O)CCSSC[C@@H](C(=O)N2CCC[C@H]2C(=O)N[C@@H](CCCCNC(=O)Cc2ccc(CN3CCN(CC(=O)O)CCN(CC(=O)O)CC3)cc2)C(=O)NCC(N)=O)NC(=O)[C@H](CC(N)=O)NC(=O)[C@H](CCC(N)=O)NC1=O [AlF-NODA-dLVTc] ([Mpa]YIQNCPK(X1)G-NH2; disulfide 1-6)
- selectivity towards OTR (human OTR; OTR over V1a, from Ki values of Table 1): approximately 60 fold
- Ki (human OTR; human OTR): 2.6 ± 1.7 nM
- Ki (human V1a receptors): 157 ± 26 nM
- Ki [1]: > 6000 nM
- Ki [2]: > 6000 nM
- half-life (in vivo; Wistar, iv, 0.08 mg/kg): 14 min
- increase in half-life compared to OT (in vivo): approximately 5 fold
